The values that follow come from patent US7226939B2, “Thienopyridine analogues with antifungal activity and process thereof” (priority 2002, dated 2007).

The subject of this assay is C. albicans. The assay can be described thus: In vitro antifungal susceptibility testing (MIC), soyabean casein digest broth. The assay is classed as cell-based. The note with it: Candida albicans, reference standard, end points after 48 hours, read-out: minimum inhibitory concentration. The protocol:
In vitro evaluation of antifungal activity can be performed by determining the minimum inhibitory concentration.
Anti-fungal susceptibility testing of these anti-fungal compounds was done by conventional method using soyabean casein digest broth. Known anti-fungal agents like Fluconazole and amphotericin-B were used as positive Control. End points were determined after 48 hours visually and by using Spectrophotometer wherever necessary. Different dilutions were tried and the set of experiments where repeated to confirm the end points. Standard cultures of Candida, Aspergillus and Fusarium were used for screening of these drugs.
Substituents and In-Vitro Anti-Fungal Activity (C. albicans) of the Compounds Expressed as MIC* (μg/ml). Reference Standard (RS) Fluconazole.

The structures appear in SMILES notation.

On to `OC(Cn1cncn1)(Cn1cncn1)c1ccc(F)cc1F` [Fluconazole], for which the MIC was < 3.12 µg/mL.
